Results taken from patent US20170252442A1, “PHOTOHEXER COMPOUNDS AND PHARMACEUTICAL COMPOSITION AND USE THEREOF” (RAINBOW PHARMATECH LLC, priority 2014, published 2017).

Legend:
[1] = test system: SW-480 cells; experiment: MTT assay, photodynamic therapy on SW-480 cells; type: cell-based, human
Source text: (§1) The cells in logarithmic growth phase were collected and inoculated on 24-well culture plates. When reaching 70%-80% confluence, cells were divided randomly into the following groups: control (the parallel control group without photosensitizer and irradiation), irradiation (irradiation treatment alone without photosensitizer); (photosensitizer treatment alone without irradiation), photodynamic treatment (treatment by photosensitizer in combination with irradiation). For the photosensitizer alone treatment group and photodynamic treatment group, an appropriate amount of Photohexer-1 (P-1) or Photohexer-2 (P-2) was respectively added away from light to give a final concentration of 0.8, 1.6, 3.2, 6.4 μM. Each group set 3 replicates. Cells were incubated with the active agent, different treatments were carried out according to the grouping. […] After treatment and digestion of each group of cells, it was inoculated into a 96-well plate at 100 μL/well, and four wells were set for each treatment. MTT assay was performed after 24 h from inoculation: 20 μL MTT solution was added to each well under the condition away from light, and the culture was continued for 4 hours. 150 μL DMSO was added to each well after discarding the supernatant. After 15 min of dissolution, the absorbance value (OD value) was measured using a microplate reader and the relative survival rate of cells was calculated according to the following formula: […]

[2] = test system: Eca-109 cells; experiment: MTT assay, photodynamic therapy on Eca-109 cells; type: cell-based, human
Source text: as §1

[3] = test system: MCF-7 cells; experiment: MTT assay, photodynamic therapy on MCF-7 cells; type: cell-based, human
Source text: as §1

[4] = test system: MCF-7/ADR cells; experiment: MTT assay, photodynamic therapy on MCF-7/ADR cells; type: cell-based, human
Source text: as §1

[5] = test system: CT26 cells; experiment: MTT assay, photodynamic therapy on CT26 cells; type: cell-based, murine
Source text: as §1

[6] = test system: 7721 cells; experiment: MTT assay, photodynamic therapy on 7721 cells; type: cell-based, human
Source text: as §1

[7] = test system: 4T1 transplanted tumors; experiment: Tumor-inhibition effect of P1 and P2-PDT on 4T1 xenografted mice; type: in vivo, Balb/c mice; conditions: for tumor inhibition rate: day 22 after treatment
Experimental: Experimental groups: blank control (2 mice), P-1 alone treatment (4 mg/kg, 8 mice), P-2 alone treatment (2 mg/kg, 8 mice), P-1 treatment (2 mg/kg, 4 mg/kg, 8 mice/group) combined with light irradiations, P-2 treatment (1 mg/kg, 2 mg/kg, 4 mg/kg, 8 mice/group) combined with light irradiations, 66 Balb/c mice in total.

[8] = Solubility determination in water; type: physicochemical; conditions: each ml of water; room temperature; read-out: solubility in water (amount dissolved by each ml of water)
Experimental: The solubility of Photohexer-1 and Photohexer-2 in water was determined by conventional methods in the art.

[9] = 0.8 μM alone treatment, without irradiation
[10] = 0.8 μM combined with 2.6 J/cm^2 light irradiation
[11] = 0.8 μM combined with 5.2 J/cm^2 light irradiation
[12] = 0.8 μM combined with 10.4 J/cm^2 light irradiation
[13] = 1.6 μM alone treatment, without irradiation
[14] = 1.6 μM combined with 2.6 J/cm^2 light irradiation
[15] = 1.6 μM combined with 5.2 J/cm^2 light irradiation
[16] = 1.6 μM combined with 10.4 J/cm^2 light irradiation
[17] = 3.2 μM alone treatment, without irradiation
[18] = 3.2 μM combined with 2.6 J/cm^2 light irradiation
[19] = 3.2 μM combined with 5.2 J/cm^2 light irradiation
[20] = 3.2 μM combined with 10.4 J/cm^2 light irradiation
[21] = 6.4 μM alone treatment, without irradiation
[22] = 6.4 μM combined with 2.6 J/cm^2 light irradiation
[23] = 6.4 μM combined with 5.2 J/cm^2 light irradiation
[24] = 6.4 μM combined with 10.4 J/cm^2 light irradiation

Structure (SMILES): C=Cc1c(C)c2cc3nc(cc4[nH]c(cc5nc(cc1[nH]2)C(C)=C5C(C)OCCCCCC)c(C)c4CCC(=O)[O-])C(CCC(=O)[O-])=C3C.[Na+].[Na+] (centres unmarked) [Photohexer P-2, 4-(1-hexyloxyethyl)-6,7-bis(propionatesodium)-1,3,5,8-tetramethyl-2-vinylporphyrin]
- photodynamic activity compared between P-1 and P-2 [1]: better activity than P-1
- Cell survival rate [1, 9]: 101.79 ± 4.08%
- Cell survival rate [1, 10]: 100.79 ± 3.76%
- Cell survival rate [1, 11]: 96.70 ± 3.63%
- Cell survival rate [1, 12]: 94.70 ± 4.16%
- Cell survival rate [1, 13]: 96.97 ± 4.27%
- Cell survival rate [1, 14]: 91.72 ± 2.89%
- Cell survival rate [1, 15]: 87.06 ± 2.51%
- Cell survival rate [1, 16]: 75.11 ± 3.24%
- Cell survival rate [1, 17]: 68.15 ± 2.78%
- Cell survival rate [1, 18]: 63.40 ± 2.24%
- Cell survival rate [1, 19]: 53.01 ± 1.99%
- Cell survival rate [1, 20]: 43.68 ± 2.54%
- Cell survival rate [1, 21]: 57.31 ± 2.33%
- Cell survival rate [1, 22]: 45.36 ± 1.22%
- Cell survival rate [1, 23]: 42.56 ± 1.06%
- Cell survival rate [1, 24]: 27.83 ± 1.13%
- Cell survival rate [2, 9]: 100.38 ± 4.27%
- Cell survival rate [2, 10]: 96.96 ± 3.87%
- Cell survival rate [2, 11]: 75.83 ± 4.22%
- Cell survival rate [2, 12]: 59.89 ± 4.24%
- Cell survival rate [2, 13]: 95.76 ± 3.16%
- Cell survival rate [2, 14]: 86.66 ± 2.94%
- Cell survival rate [2, 15]: 70.66 ± 3.78%
- Cell survival rate [2, 16]: 51.36 ± 3.67%
- Cell survival rate [2, 17]: 94.07 ± 2.58%
- Cell survival rate [2, 18]: 79.33 ± 2.24%
- Cell survival rate [2, 19]: 56.40 ± 2.33%
- Cell survival rate [2, 20]: 40.90 ± 2.34%
- Cell survival rate [2, 21]: 84.49 ± 1.32%
- Cell survival rate [2, 22]: 83.57 ± 1.12%
- Cell survival rate [2, 23]: 33.91 ± 1.07%
- Cell survival rate [2, 24]: 33.91 ± 1.01%
- Cell survival rate [3, 9]: 98.46 ± 4.62%
- Cell survival rate [3, 10]: 89.08 ± 3.99%
- Cell survival rate [3, 11]: 76.83 ± 4.26%
- Cell survival rate [3, 12]: 72.40 ± 4.14%
- Cell survival rate [3, 13]: 84.93 ± 3.16%
- Cell survival rate [3, 14]: 65.11 ± 2.73%
- Cell survival rate [3, 15]: 48.15 ± 3.12%
- Cell survival rate [3, 16]: 41.81 ± 3.77%
- Cell survival rate [3, 17]: 82.94 ± 2.28%
- Cell survival rate [3, 18]: 51.79 ± 2.10%
- Cell survival rate [3, 19]: 44.80 ± 2.22%
- Cell survival rate [3, 20]: 34.81 ± 2.43%
- Cell survival rate [3, 21]: 80.23 ± 1.03%
- Cell survival rate [3, 22]: 40.31 ± 1.02%
- Cell survival rate [3, 23]: 35.46 ± 1.02%
- Cell survival rate [3, 24]: 26.14 ± 1.07%
- cell toxicity [4]: significant cell toxicity
- Cell survival rate [4, 9]: 96.93 ± 4.47%
- Cell survival rate [4, 10]: 94.88 ± 3.94%
- Cell survival rate [4, 11]: 92.76 ± 4.32%
- Cell survival rate [4, 12]: 90.99 ± 4.36%
- Cell survival rate [4, 13]: 92.26 ± 3.26%
- Cell survival rate [4, 14]: 74.79 ± 2.77%
- Cell survival rate [4, 15]: 67.82 ± 3.12%
- Cell survival rate [4, 16]: 54.66 ± 3.43%
- Cell survival rate [4, 17]: 53.84 ± 2.58%
- Cell survival rate [4, 18]: 50.37 ± 2.13%
- Cell survival rate [4, 19]: 48.99 ± 2.16%
- Cell survival rate [4, 20]: 46.57 ± 2.76%
- Cell survival rate [4, 21]: 48.88 ± 1.13%
- Cell survival rate [4, 22]: 43.68 ± 1.06%
- Cell survival rate [4, 23]: 41.49 ± 0.96%
- Cell survival rate [4, 24]: 34.75 ± 1.22%
- photoactivity compared between P-1 and P-2 [5]: stronger than that of P-1
- Cell survival rate [5, 9]: 94.08 ± 4.27%
- Cell survival rate [5, 10]: 83.97 ± 3.96%
- Cell survival rate [5, 11]: 82.55 ± 4.77%
- Cell survival rate [5, 12]: 70.66 ± 4.66%
- Cell survival rate [5, 13]: 92.09 ± 3.56%
- Cell survival rate [5, 14]: 61.29 ± 2.78%
- Cell survival rate [5, 15]: 49.85 ± 3.55%
- Cell survival rate [5, 16]: 38.89 ± 3.86%
- Cell survival rate [5, 17]: 76.30 ± 2.28%
- Cell survival rate [5, 18]: 44.29 ± 2.41%
- Cell survival rate [5, 19]: 39.69 ± 2.27%
- Cell survival rate [5, 20]: 26.01 ± 2.38%
- Cell survival rate [5, 21]: 50.49 ± 1.03%
- Cell survival rate [5, 22]: 34.11 ± 1.02%
- Cell survival rate [5, 23]: 28.61 ± 1.09%
- Cell survival rate [5, 24]: 18.82 ± 1.01%
- Cell survival rate [6, 9]: 102.15 ± 4.07%
- Cell survival rate [6, 10]: 98.29 ± 4.01%
- Cell survival rate [6, 11]: 96.77 ± 3.76%
- Cell survival rate [6, 12]: 95.91 ± 3.95%
- Cell survival rate [6, 13]: 101.37 ± 3.36%
- Cell survival rate [6, 14]: 94.78 ± 3.88%
- Cell survival rate [6, 15]: 92.15 ± 3.64%
- Cell survival rate [6, 16]: 91.44 ± 3.73%
- Cell survival rate [6, 17]: 100.64 ± 2.98%
- Cell survival rate [6, 18]: 92.15 ± 3.76%
- Cell survival rate [6, 19]: 89.23 ± 3.35%
- Cell survival rate [6, 20]: 78.32 ± 3.19%
- Cell survival rate [6, 21]: 98.14 ± 2.53%
- Cell survival rate [6, 22]: 88.02 ± 3.59%
- Cell survival rate [6, 23]: 82.25 ± 2.79%
- Cell survival rate [6, 24]: 71.15 ± 2.91%
- toxicity alone ([6]; alone, without irradiation): no significant toxicity
- cell toxicity with light ([6]; combination with a certain amount of light): stronger cell toxicity
- toxic effects of photosensitizer alone ([7]; 2 mg/kg alone, without irradiation, 4T1 tumor-bearing mice): did not show significant toxic effects
- tumor inhibition rate ([7]; 2 mg/kg combined with light irradiation (50 J/cm^2), 4T1 tumor-bearing mice): 23.35%
- tumor inhibition rate ([7]; 4 mg/kg combined with light irradiation (50 J/cm^2), 4T1 tumor-bearing mice): 44.68%
- photosensitizer activity on growth of 4T1 transplanted tumors ([7]; combined with 50 J/cm^2 irradiation): obvious dose-dependent activity
- volume of tumor relative to control group ([7]; combined with 50 J/cm^2 irradiation, 8th to 22nd days after treatment): about half the size of tumors of control group
- solubility [8]: ~10000 µg/mL
